{
  "source": "paper PMC7377239",
  "about": "“Cardiovascular Effects of Polychlorinated Biphenyls and Their Major Metabolites” (Environmental Health Perspectives, 2020)",
  "key": {"[1]": {"tested_on": "iCell endothelial cells (human iPSC-derived ECs)", "experiment": "Tube formation (tubulogenesis) assay in iCell endothelial cells, 18 h", "format": "cell-based", "conditions": "Homo sapiens, Endothelial cell, iPSC-EC tube formation, 18 hr; for activity at 0.1 µM: 0.10 µM; for minimal effective concentration: top concentration 100.00 µM", "summary_of_the_method": "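Tube formation was measured by calcein AM imaging after overnight compound exposure (37°C, 0.5% DMSO vehicle) of human iPSC-derived ECs, 7,500/well, on reduced-growth-factor Geltrex in starvation medium. Vehicle-normalized data fitted to four-parameter logistic; POD set at one vehicle SD; without response, 100 μM taken as NOAEL.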"}, "HUVECs": {"tested_on": "HUVECs", "experiment": "High-content imaging cytotoxicity in HUVECs, 24 h", "format": "cell-based, human", "conditions": "Homo sapiens, HUVEC, 24 h, HUVECs; for viability at 0.01 µM / activity at 0.01 µM / viability at 0.1 µM / activity at 0.1 µM / viability at 1 µM / activity at 1 µM / viability at 10 µM / activity at 10 µM / viability at 100 µM / activity at 100 µM: 0.00 µM = 100.00; for viability at 0.1 µM / activity at 0.1 µM: 0.10 µM; for minimal effective concentration: top concentration 100.00 µM", "summary_of_the_method": "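Point-of-departure values come from four-parameter logistic fits of vehicle-normalized (0.5% DMSO) imaging readouts, cutoff one SD of vehicle means, 100μM where no concentration–response. Cells: HUVEC monolayers, passages 1–5, treated 24 h at 37°C, 5% CO2, then Hoechst 33342/MitoTracker Orange/calcein AM stained, imaged at 10×.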"}, "[2]": {"conditions": "0.00 µM control = 100.00, read-out: endo.mtl.18hr"}, "[3]": {"conditions": "0.00 µM control = 100.00, read-out: endo.tlps.18hr"}, "[4]": {"conditions": "0.00 µM control = 100.00, read-out: endo.tta.18hr"}, "[5]": {"conditions": "0.00 µM control = 100.00, read-out: endo.ttl.18hr"}, "[6]": {"conditions": "24 hr, read-out: huvec.cyto.24hr"}, "[7]": {"conditions": "24 hr, read-out: huvec.mito.24hr"}, "[8]": {"conditions": "24 hr, read-out: huvec.mitoint.24hr"}, "[9]": {"conditions": "24 hr, read-out: huvec.nma.24hr"}, "[10]": {"conditions": "24 hrs, read-out: huvec.tc.24hrs"}},
  "note": "Where a name gives a salt, the structure may show the parent alone. Read-outs that look alike come from different tables or passages of the source.",
  "data": [
    {"smiles": "O=S(=O)(O)Oc1cccc(-c2ccc(Cl)cc2)c1", "note": "[3'-yl PCB 3 sulfate]", "values": [
      {"measurement": "activity at 0.01 µM", "setting": "[1]; [2]", "value": 93.5, "unit": "%"},
      {"measurement": "activity at 0.01 µM", "setting": "[1]; [3]", "value": 81.8, "unit": "%"},
      {"measurement": "activity at 0.01 µM", "setting": "[1]; [4]", "value": 112, "unit": "%"},
      {"measurement": "activity at 0.01 µM", "setting": "[1]; [5]", "value": 103, "unit": "%"},
      {"measurement": "activity at 0.1 µM", "setting": "[1]; [2]", "value": 87.9, "unit": "%"},
      {"measurement": "activity at 0.1 µM", "setting": "[1]; [3]", "value": 126, "unit": "%"},
      {"measurement": "activity at 0.1 µM", "setting": "[1]; [4]", "value": 93, "unit": "%"},
      {"measurement": "activity at 0.1 µM", "setting": "[1]; [5]", "value": 88.2, "unit": "%"},
      {"measurement": "activity at 1 µM", "setting": "[1]; [2]", "value": 91.5, "unit": "%"},
      {"measurement": "activity at 1 µM", "setting": "[1]; [3]", "value": 103, "unit": "%"},
      {"measurement": "activity at 1 µM", "setting": "[1]; [4]", "value": 108, "unit": "%"},
      {"measurement": "activity at 1 µM", "setting": "[1]; [5]", "value": 98.9, "unit": "%"},
      {"measurement": "activity at 10 µM", "setting": "[1]; [2]", "value": 70.7, "unit": "%"},
      {"measurement": "activity at 10 µM", "setting": "[1]; [3]", "value": 99.4, "unit": "%"},
      {"measurement": "activity at 10 µM", "setting": "[1]; [4]", "value": 63.7, "unit": "%"},
      {"measurement": "activity at 10 µM", "setting": "[1]; [5]", "value": 60, "unit": "%"},
      {"measurement": "activity at 100 µM", "setting": "[1]; [2]", "value": 59.2, "unit": "%"},
      {"measurement": "activity at 100 µM", "setting": "[1]; [3]", "value": 33.7, "unit": "%"},
      {"measurement": "activity at 100 µM", "setting": "[1]; [4]", "value": 59.5, "unit": "%"},
      {"measurement": "activity at 100 µM", "setting": "[1]; [5]", "value": 60.4, "unit": "%"},
      {"measurement": "minimal effective concentration", "setting": "[1]; read-out: endo.mtl.18hr POD", "value": 0.58, "unit": "µM"},
      {"measurement": "minimal effective concentration", "setting": "[1]; read-out: endo.tlps.18hr POD", "value": 38.6, "unit": "µM"},
      {"measurement": "minimal effective concentration", "setting": "[1]; read-out: endo.tta.18hr POD", "value": 11.6, "unit": "µM"},
      {"measurement": "minimal effective concentration", "setting": "[1]; read-out: endo.ttl.18hr POD", "value": 8.75, "unit": "µM"},
      {"measurement": "viability at 0.01 µM", "setting": "HUVECs; [6]", "value": 96, "unit": "%"},
      {"measurement": "activity at 0.01 µM", "setting": "HUVECs; [7]", "value": 95.2, "unit": "%"},
      {"measurement": "activity at 0.01 µM", "setting": "HUVECs; [8]", "value": 93.5, "unit": "%"},
      {"measurement": "activity at 0.01 µM", "setting": "HUVECs; [9]", "value": 100, "unit": "%"},
      {"measurement": "viability at 0.1 µM", "setting": "HUVECs; [6]", "value": 97, "unit": "%"},
      {"measurement": "activity at 0.1 µM", "setting": "HUVECs; [7]", "value": 97.2, "unit": "%"},
      {"measurement": "activity at 0.1 µM", "setting": "HUVECs; [8]", "value": 105, "unit": "%"},
      {"measurement": "activity at 0.1 µM", "setting": "HUVECs; [9]", "value": 101, "unit": "%"},
      {"measurement": "viability at 1 µM", "setting": "HUVECs; [6]", "value": 92.7, "unit": "%"},
      {"measurement": "activity at 1 µM", "setting": "HUVECs; [7]", "value": 92.1, "unit": "%"},
      {"measurement": "activity at 1 µM", "setting": "HUVECs; [8]", "value": 104, "unit": "%"},
      {"measurement": "activity at 1 µM", "setting": "HUVECs; [9]", "value": 101, "unit": "%"},
      {"measurement": "viability at 10 µM", "setting": "HUVECs; [6]", "value": 119, "unit": "%"},
      {"measurement": "activity at 10 µM", "setting": "HUVECs; [7]", "value": 118, "unit": "%"},
      {"measurement": "activity at 10 µM", "setting": "HUVECs; [8]", "value": 89.3, "unit": "%"},
      {"measurement": "activity at 10 µM", "setting": "HUVECs; [9]", "value": 92.6, "unit": "%"},
      {"measurement": "viability at 100 µM", "setting": "HUVECs; [6]", "value": 88, "unit": "%"},
      {"measurement": "activity at 100 µM", "setting": "HUVECs; [7]", "value": 87.5, "unit": "%"},
      {"measurement": "activity at 100 µM", "setting": "HUVECs; [8]", "value": 102, "unit": "%"},
      {"measurement": "activity at 100 µM", "setting": "HUVECs; [9]", "value": 94.9, "unit": "%"},
      {"measurement": "minimal effective concentration", "setting": "HUVECs; 24 hr, read-out: huvec.cyto.24hr POD", "value": 100, "unit": "µM"},
      {"measurement": "minimal effective concentration", "setting": "HUVECs; 24 hr, read-out: huvec.mito.24hr POD", "value": 100, "unit": "µM"},
      {"measurement": "minimal effective concentration", "setting": "HUVECs; 24 hr, read-out: huvec.mitoint.24hr POD", "value": 100, "unit": "µM"},
      {"measurement": "minimal effective concentration", "setting": "HUVECs; 24 hr, read-out: huvec.nma.24hr POD", "value": 100, "unit": "µM"},
      {"measurement": "viability at 0.01 µM", "setting": "HUVECs; [10]", "value": 96, "unit": "%"},
      {"measurement": "viability at 0.1 µM", "setting": "HUVECs; [10]", "value": 97.1, "unit": "%"},
      {"measurement": "viability at 1 µM", "setting": "HUVECs; [10]", "value": 92.7, "unit": "%"},
      {"measurement": "viability at 10 µM", "setting": "HUVECs; [10]", "value": 119, "unit": "%"},
      {"measurement": "viability at 100 µM", "setting": "HUVECs; [10]", "value": 88.2, "unit": "%"},
      {"measurement": "minimal effective concentration", "setting": "HUVECs; 24 hrs, read-out: huvec.tc.24hrs POD", "value": 100, "unit": "µM"}
    ]}
  ]
}
